{"source": "ChEMBL document CHEMBL1133644", "about": "“Platelet glycoprotein IIb-IIIa antagonists as prototypical integrin blockers: novel parenteral and potential oral antithrombotic agents” (J Med Chem, 2000)", "key": {"[1]": {"biological_target": "T1, Integrin alpha-IIb/beta-3 (Homo sapiens, UniProt P05106+P08514)", "test": "Inhibition of ex vivo platelet aggregation after oral administration of 0.5 mg/kg to cynomolgus monkeys at 2-8h", "format": "functional, organism-based", "design": "dose 0.5 mg/kg", "details": "at 0.5 mg/kg"}, "[2]": {"test": "biological half-life was measured on dogs", "format": "ADME, organism-based, Canis lupus familiaris", "details": "dog, in vivo"}, "[3]": {"test": "biological half-life was measured on rhesus monkeys", "format": "ADME, organism-based, Macaca mulatta", "details": "rhesus monkey, in vivo"}, "[4]": {"biological_target": "T1, Integrin alpha-IIb/beta-3", "test": "Inhibition of platelet aggregation after 10 ug/kg/day dose over 6 days in dogs", "format": "functional", "details": "Canis lupus familiaris; target entry is the homologue from another species"}, "[5]": {"test": "In vitro inhibition of gel filtered platelet aggregation induced by ADP."}, "[6]": {"biological_target": "T1, Integrin alpha-IIb/beta-3", "test": "Inhibition of fibrinogen binding to alpha IIb beta-3 integrin", "format": "protein-complex assay"}, "[7]": {"biological_target": "T1, Integrin alpha-IIb/beta-3", "test": "Inhibition of fibrinogen binding to alpha IIb beta-3 integrin using thrombin inhibitor PPACK as anticoagulant", "format": "functional"}, "[8]": {"test": "Oral bioavailability in dog", "format": "ADME, organism-based, Canis lupus familiaris", "details": "in vivo"}, "[9]": {"test": "oral bioavailability was measured in dogs", "format": "ADME, organism-based, Canis lupus familiaris", "details": "dog, in vivo"}, "[10]": {"test": "oral bioavailability was measured in rhesus monkeys", "format": "ADME, organism-based, Macaca mulatta", "details": "rhesus monkey, in vivo"}, "[11]": {"test": "oral bio availability was measured on dogs", "format": "ADME, organism-based, Canis lupus familiaris", "details": "dog, in vivo"}, "[12]": {"biological_target": "T1, Integrin alpha-IIb/beta-3", "test": "Dissociation constant for [3H]-DMP728 binding to alphaIIb beta III integrin", "format": "protein-complex assay"}, "[13]": {"biological_target": "T1, Integrin alpha-IIb/beta-3", "test": "Dissociation constant for alpha IIb beta-3 integrin rested platelets", "format": "functional"}, "[14]": {"biological_target": "T1, Integrin alpha-IIb/beta-3", "test": "Inhibition of platelet aggregation after administration of 30 ug/kg iv bolus to dogs within first 1-15 min", "format": "functional, organism-based", "details": "Canis lupus familiaris; target entry is the homologue from another species"}, "[15]": {"test": "half life was measured on dogs", "format": "ADME, organism-based, Canis lupus familiaris", "details": "dog, in vivo"}, "[16]": {"test": "biological half-life was measured on dog", "format": "ADME, organism-based, Canis lupus familiaris", "details": "in vivo"}, "[17]": {"biological_target": "T1, Integrin alpha-IIb/beta-3", "test": "Inhibition of [125]fibrinogen binding to alpha IIb beta-3 integrin", "format": "protein-complex assay"}, "[18]": {"test": "Duration of action in dog at a dose of 1 mg/kg i.d.", "format": "ADME, organism-based, Canis lupus familiaris", "design": "dose 1 mg/kg, route intraduodenal", "details": "in vivo, other"}, "[19]": {"biological_target": "T1, Integrin alpha-IIb/beta-3", "test": "Inhibition of alpha IIb beta III mediated platelet aggregation"}, "[20]": {"biological_target": "T1, Integrin alpha-IIb/beta-3", "test": "Inhibition of fibrinogen binding to activated platelets"}, "[21]": {"biological_target": "T1, Integrin alpha-IIb/beta-3", "test": "Inhibition of fixed platelet aggregation", "format": "functional"}, "Homo sapiens": {"species_on_record": "Homo sapiens", "test": "biological half-life was measured on unactivated human platelets"}}, "note": "Positions of bridges follow the written chain, without caps; N, C: chain ends. Non-standard residues stand in square brackets, D forms with d. Residues, ends and D or L forms follow the SMILES beside them. NMeR = CN[C@@H](CCCNC(=N)N)C(=O)O; hArg = N=C(N)NCCCC[C@H](N)C(=O)O; 3Amb = NCc1cccc(C(=O)O)c1; dAbu = CC[C@@H](N)C(=O)O; Mpa = O=C(O)CCS"}
{"smiles": "Cc1c(C(=O)NCCC(=O)O)s/c(=N\\C(=O)c2ccc(C(=N)N3CCC4(CC3)OCCO4)cc2)n1C", "values": [{"measurement": "inhibition", "setting": "[1]", "value": "> 80", "unit": "%"}]}
{"smiles": "C[C@H](NC(=O)c1ccc(C(=N)N)cc1)C(=O)N1CCC(OCC(=O)O)CC1", "note": "[RO-44-3888]", "values": [{"measurement": "half-life", "setting": "[2]", "value": 684, "unit": "min"}, {"measurement": "half-life", "setting": "[3]", "value": 306, "unit": "min"}]}
{"smiles": "O=C(NC[C@H](NS(=O)(=O)c1cccnc1)C(=O)O)c1cc2cc(CCC3CCNCC3)sc2s1", "values": [{"measurement": "inhibition", "setting": "[4]", "value": "> 80", "unit": "%"}, {"measurement": "IC50", "setting": "[5]", "value": 8, "unit": "nM"}]}
{"smiles": "N=C(N)c1ccc(C(=O)Nc2ccc3c(c2)CCN(CC(=O)O)C3=O)cc1", "values": [{"measurement": "IC50", "setting": "[5]", "value": 90, "unit": "nM"}]}
{"smiles": "CC(=O)N[C@@H](CCCN=C(N)N)C(=O)NCC(=O)N[C@@H](CC(=O)O)C(=O)N[C@H](C(N)=O)C(C)C", "note": "(Ac-RGDV-NH2)", "values": [{"measurement": "IC50", "setting": "[6]", "value": 27000, "unit": "nM"}]}
{"smiles": "N=C(N)NCCCC[C@@H]1NC(=O)CCSSC[C@@H](C(N)=O)NC(=O)[C@@H]2CCCN2C(=O)[C@H](Cc2c[nH]c3ccccc23)NC(=O)[C@H](CC(=O)O)NC(=O)CNC1=O", "note": "[EPTIFIBATIDE] ([Mpa][hArg]GDWPC-NH2; disulfide 1-7)", "values": [{"measurement": "IC50", "setting": "[7]", "value": 570, "unit": "nM"}]}
{"smiles": "C[C@@]1(c2ccc(C(=N)N)cc2)NC(=O)N(CC(=O)NC(CC(=O)O)c2ccccc2)C1=O", "note": "(stereo not given in full)", "values": [{"measurement": "bioavailability", "setting": "[8]", "value": 42, "unit": "%"}, {"measurement": "half-life", "setting": "[2]", "value": 594, "unit": "min"}]}
{"smiles": "CN1C(=O)CN(CCC(=O)O)C(=O)c2cc(C#Cc3ccc(C(=N)N)cc3)ccc21", "values": [{"measurement": "IC50", "setting": "[5]", "value": 120, "unit": "nM"}]}
{"smiles": "C#C[C@H](CC(=O)OCC)NC(=O)CN1CCc2ccc(N3CCNCC3)cc2C1=O", "values": [{"measurement": "bioavailability", "setting": "[9]", "value": "> 17", "unit": "%"}, {"measurement": "bioavailability", "setting": "[10]", "value": 32, "unit": "%"}]}
{"smiles": "CC[C@H]1NC(=O)c2cccc(c2)CNC(=O)[C@H](CC(=O)O)NC(=O)CNC(=O)[C@H](CCCN=C(N)N)N(C)C1=O", "note": "(cyclo([NMeR]GD[3Amb][dAbu]))", "values": [{"measurement": "bioavailability", "setting": "[11]", "value": 12, "unit": "%"}, {"measurement": "IC50", "setting": "[6]", "value": 2.3, "unit": "nM"}, {"measurement": "Kd", "setting": "[12]", "value": 0.1, "unit": "nM"}]}
{"smiles": "O=C(NC[C@H](NS(=O)(=O)c1ccccc1)C(=O)O)c1cc2sc(CCC3CCNCC3)cc2s1", "values": [{"measurement": "IC50", "setting": "[5]", "value": 7, "unit": "nM"}]}
{"smiles": "C[C@H](CC(=O)O)NC(=O)CN1CCC[C@@H](CCC2CCNCC2)C1=O", "values": [{"measurement": "bioavailability", "setting": "[8]", "value": 16, "unit": "%"}, {"measurement": "Kd", "setting": "[13]", "value": 650, "unit": "nM"}, {"measurement": "inhibition", "setting": "[14]", "value": "> 90", "unit": "%"}]}
{"smiles": "O=C(O)C[C@H](NC(=O)[C@@H]1CCCN(C(=O)CCC2CCNCC2)C1)c1cccnc1", "note": "[ELAROFIBAN]", "values": [{"measurement": "half-life", "setting": "[15]", "value": 85, "unit": "min"}]}
{"smiles": "CC(=O)N[C@H]1CSSC[C@@H](C(N)=O)NC(=O)[C@H](CC(=O)O)NC(=O)CNC(=O)[C@H](CCCN=C(N)N)N(C)C1=O", "note": "(Ac-C[NMeR]GDC-NH2; disulfide 1-5)", "values": [{"measurement": "half-life", "setting": "[16]", "value": 66, "unit": "min"}, {"measurement": "IC50", "setting": "[17]", "value": 2.8, "unit": "nM"}, {"measurement": "IC50", "setting": "[6]", "value": 480, "unit": "nM"}]}
{"smiles": "CN1Cc2cc(C(=O)N3CCC(C4CCNCC4)CC3)ccc2N[C@@H](CC(=O)O)C1=O", "note": "[LOTRAFIBAN]", "values": [{"measurement": "duration of action", "setting": "[18]", "value": "> 8", "unit": "h"}, {"measurement": "Kd", "setting": "[19]", "value": 1.85, "unit": "nM"}]}
{"smiles": "C#C[C@H](CC(=O)OCC)NC(=O)CCC(=O)Nc1ccc(C(=N)N)cc1", "note": "[XEMILOFIBAN]", "values": [{"measurement": "F", "setting": "[8]", "value": 53, "unit": "%"}]}
{"smiles": "CCN(CC(=O)N[C@@H](CC(=O)O)C(=O)N[C@@H](Cc1ccccc1)C(N)=O)C(=O)CCCC1CCNCC1", "values": [{"measurement": "IC50", "setting": "[20]", "value": 28, "unit": "nM"}, {"measurement": "IC50", "setting": "[21]", "value": 97, "unit": "nM"}]}
{"smiles": "CCCCOC(=O)N[C@@H](CNC(=O)C[C@H]1CC(c2ccc(C(=N)N)cc2)=NO1)C(=O)O", "values": [{"measurement": "T1/2", "setting": "Homo sapiens", "value": 7, "unit": "min"}]}
